According to patent US6713514B1, “PPAR-γ agonists as agents for the treatment of type II diabetes” (Lexicon Pharmaceuticals, Inc., priority 1999, dated 2004):
Read-outs that look alike come from different tables or passages of the source.

What was measured:
[1] = tested on: primary human subcutaneous preadipocytes; test: Human adipocyte differentiation (oil red-O staining); assay type: cell-based; conditions: human adipocyte differentiation in presence of insulin and dexamethasone
Description: Assays are carried out on primary human subcutaneous preadipocytes. Preadipocytes are inoculated at high density in preadipocyte medium (DME/F-10, 1:1, (v/v) containing 10% fetal calf serum) and maintained overnight for attachment. Drug treatment is initiated the second day by changing to serum free medium containing test compounds. The basal medium, which is used as the negative control, contains DME/F-10, biotin (33 μM), pantothenate (17 μM), insulin (100 nM), and dexamethasone (1 μM) and BRL 49653 is included as a positive control. The culture is maintained for 14 days with the compound treatment during the first five days. At the end of the culture, cells are fixed in 5% formalin and stained with oil red-O dye. The dye is extracted by isopropanol and quantitated by measure the optical density at 500 nm. EC50 values found in Table 1 reflect the human adipocyte differentiation of the compound in presence of insulin and dexamethasone.

Zucker Obese Rats = test: Blood glucose lowering in diabetic rats; assay type: in vivo, rat; conditions: oral gavage once daily
Description: [The source words this procedure for another organism and reports this organism under the same test.] Male Zucker lean rats, 24-28 weeks of age, are fed high fat chow (AIN-93-M formulation) for two weeks to elevate blood glucose. At blood glucose concentrations over 160 mg/dl, a three day pre-study baseline is established by measuring blood glucose daily (at 0700-0800 hrs) via tail vein blood extraction and measurement using a glucometer. Animals are segregated into groups of 5 based on weights and baseline glucose. Compounds are then administered to the animals at various concentrations (30 mg compound/kg body weight or 10 mg compound/kg body weight). The drugs were suspended in 0.5% carboxymethylcellulose (Sigma) in a total gavage volume of 250 μL. Animals are dosed for seven days, once daily in the morning after blood glucose and weight determination. At the end of the seven-day period, the animals are euthanized by exsanguination after isofluorane anesthesia.

[2] = biological target: T1, LBD (ligand binding domain) of the PPAR-γ receptor (Homo sapiens, UniProt P37231); test: Binding to PPAR-γ receptor (inhibition of 3H-PPAR-γ ligand binding to LBD); conditions: 8 nM 3H-PPAR ligand, 210 ng LBD/well, 2 hours
T1 sequence (P37231 238-503 limits assumed): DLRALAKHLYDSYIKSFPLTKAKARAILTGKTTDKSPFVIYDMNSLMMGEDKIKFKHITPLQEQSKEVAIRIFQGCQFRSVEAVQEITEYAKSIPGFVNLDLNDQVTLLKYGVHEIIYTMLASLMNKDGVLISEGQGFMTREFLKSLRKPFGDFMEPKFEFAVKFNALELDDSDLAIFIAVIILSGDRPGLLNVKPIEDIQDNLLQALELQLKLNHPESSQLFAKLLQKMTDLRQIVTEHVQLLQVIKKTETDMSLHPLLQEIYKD
Description: Binding to PPAR-γ Receptor Compounds are assayed for their ability to inhibit the binding of 3H-PPAR-γ ligand to the LBD (ligand binding domain) of the PPAR-γ receptor. Compounds are tested at 4 concentrations (1 μM to 1 nM) in triplicate. Compounds are incubated with H3-PPAR ligand (8 nM final concentration) and LBD (210 ng/assay well) in assay buffer (50 mM Tris pH8.0. 50 mM KCL, 2 mM EDTA, 0.3% CHAPS, 0.1 mg/ml BSA, 10 mM DTT) for 2 hours with gentle shaking. Non-specific binding is measured in the presence of 10 μM excess cold competitor. Bound ligand is separated using gel filtration plates (Edge Biosystems 31909) and captured on 96 well Wallac MicroBeta plates (1450-5150 by centrifugation for 5 minutes at 2500 rpm. Radioactivity is measured in a Wallac Micro Beta counter. Table 2 gives the IC50 values of compounds 1 and 2.

[3] = 14 day culture, compound first five days, read-out: EC50 Differentiation
[4] = read-out: EC50 Inhibition of Differentiation
[5] = Treatment Day 0 (baseline), 30 or 10 mg/kg (dose not given)

| EC50 [1, 3] [nM] | EC50 [1, 4] [nM] | IC50 [2] [nM] | SMILES | Blood Glucose (mg/dl ± SEM) (Zucker Obese Rats; [5]) [mg/dL] | Blood Glucose (mg/dl ± SEM) (Zucker Obese Rats; Treatment Day 1) [mg/dL] | Blood Glucose (mg/dl ± SEM) (Zucker Obese Rats; Treatment Day 2) [mg/dL] | Blood Glucose (mg/dl ± SEM) (Zucker Obese Rats; Treatment Day 3) [mg/dL] | Blood Glucose (mg/dl ± SEM) (Zucker Obese Rats; Treatment Day 4) [mg/dL] | Blood Glucose (mg/dl ± SEM) (Zucker Obese Rats; Treatment Day 5) [mg/dL] | Blood Glucose (mg/dl ± SEM) (Zucker Obese Rats; Treatment Day 6) [mg/dL] | Blood Glucose (mg/dl ± SEM) (Zucker Obese Rats; Treatment Day 7) [mg/dL] |
| --- | --- | --- | --- | --- | --- | --- | --- | --- | --- | --- | --- |
| 100 | > 10000 |  | CN(CCOc1ccc(CC2SC(=O)NC2=O)cc1)c1ccccn1 (stereo not drawn) [Rosiglitizone, reference compound] |  |  |  |  |  |  |  |  |
| 175 | > 10000 | 3300 | CN(C(=O)c1ccc(C[C@H](NCc2ccccc2)C(=O)O)cc1)C1CCCC1Sc1ccccc1 (stereo partly drawn) [Compound 2, (2S)-3-{4-[N-methyl-N(2-phenylthiocyclopentyl)carbamoyl]phenyl}-2-[benzylamino]propanoic acid] | 133 ± 11 | 136 ± 5 | 104 ± 1 | 100 ± 9 | 93 ± 6 | 100 ± 4 | 101 ± 5 | 92 ± 6 |
| 150 | > 10000 | 1700 | O=C(NCCCc1ccccc1)c1ccc(C[C@H](NCc2ccccc2)C(=O)O)cc1 [Compound 1, (2S)-2-[benzylamino]-3-{4-[N-(3-phenylpropyl)carbamoyl]phenyl}propanoic acid] | 133 ± 11 | 134 ± 11 | 105 ± 7 | 105 ± 4 | 97 ± 16 | 113 ± 3 | 105 ± 6 | 104 ± 8 |
